Test results as given in ChEMBL document CHEMBL6092188, “Structure-Guided Conformational Restriction Leading to High-Affinity, Selective, and Cell-Active Tetrahydroisoquinoline-Based Noncovalent Keap1-Nrf2 Inhibitors” (J Med Chem, 2024).

Tests used:
[1] = Solubility of the compound in PBS buffer and 0.5% DMSO at 200 uM by LC-MS analysis; assay type: physicochemical
[2] = Metabolic stability in male CD-1 mouse liver microsomes assessed as parent compound remaining measured after 30 mins in presence of NADPH regenerating system by LC-MS analysis; assay type: ADME, Microsome; details: read-out: Stability
in vitro [3] = details: male, CD-1, mouse, liver microsomes
[4] = Metabolic stability in human liver microsomes assessed as parent compound remaining measured after 30 mins in presence of NADPH regenerating system by LC-MS analysis; assay type: ADME, Microsome; details: read-out: Stability
[5] = Metabolic stability in human liver microsomes assessed as half life measured after 1 hr in presence of NADPH regenerating system by LC-MS analysis; assay type: ADME, Microsome
[6] = Metabolic stability in male Sprague-Dawley rat liver microsomes assessed as parent compound remaining measured after 30 mins in presence of NADPH regenerating system by LC-MS analysis; assay type: ADME, Microsome; details: read-out: Stability
[7] = Permeability of the compound in PBS buffer at pH 7.4 at 200 uM measured after 5 hrs by PAMPA assay; assay type: ADME; details: for Papp at 5 h, 200 µM: PAMPA, pH 7.4, read-out: permeability
in vitro [8] = details: male, Sprague-Dawley, rat, liver microsomes

SMILES	solubility [1]	remaining at 0.5 h [2] [%]	half-life at 1 h (in vitro [3]) [min]	remaining at 0.5 h [4] [%]	half-life [5] [min]	remaining at 0.5 h [6] [%]	Papp at 5 h, 200 µM [7] [×10⁻⁶ cm/s]	half-life at 1 h (in vitro [8]) [min]	permeability ([7]; pampa, pH 7.4, 5 h, 200 µM)
COc1cccc(S(=O)(=O)NCc2cccc(C(NC(=O)c3cccc4c3-c3ccccc3C4=O)C(=O)O)c2)c1 (centres undefined)	soluble	–	–	–	–	–	–	–	–
COc1ccc(S(=O)(=O)NCc2cccc(C(NC(=O)c3cccc4c3-c3ccccc3C4=O)C(=O)O)c2)cc1 (centres undefined)	–	< 3	3.6	–	–	–	–	–	–
CCOc1ccc(S(=O)(=O)N2CCc3ccc(C(NC(=O)c4cccc5c4-c4cccnc4C5=O)C(=O)O)cc3C2)cc1C#N (centres undefined)	–	39	25	–	–	–	–	–	–
O=C(NC(C(=O)O)c1ccc2c(c1)CN(S(=O)(=O)c1cccc(Br)c1)CC2)c1cccc2c1-c1ccccc1C2=O (centres undefined)	–	0	3.3	–	–	–	–	–	–
Cn1c2ccccc2c2c(C(=O)NC(C(=O)O)c3ccc4c(c3)CN(S(=O)(=O)c3ccc(F)c(C#N)c3)CC4)cccc21 (centres undefined)	–	16	13	64	51	86	4.7	240	–
CCOc1ccc(S(=O)(=O)N2CCc3ccc(C(NC(=O)c4cccc5c4-c4ccccc4C5F)C(=O)O)cc3C2)cc1C#N (centres undefined)	–	19	12	–	–	–	–	–	–
CCOc1ccc(S(=O)(=O)N2CCc3ccc(C(NC(=O)c4cccc5c4-c4ccccc4C5=O)C(=O)O)cc3C2)cc1C#N (centres undefined)	–	3	3.8	< 3	5.1	78	–	99	–
N#Cc1cccc(S(=O)(=O)N2CCc3ccc(C(NC(=O)c4cccc5c4-c4ccccc4C5=O)C(=O)O)cc3C2)c1 (centres undefined)	–	7.5	6.1	< 3	6.1	83	–	130	–

Next, values leading:

solubility [1]	remaining at 0.5 h [2] [%]	half-life at 1 h (in vitro [3]) [min]	remaining at 0.5 h [4] [%]	half-life [5] [min]	remaining at 0.5 h [6] [%]	Papp at 5 h, 200 µM [7] [×10⁻⁶ cm/s]	half-life at 1 h (in vitro [8]) [min]	permeability ([7]; pampa, pH 7.4, 5 h, 200 µM)	SMILES
soluble	–	–	–	–	–	–	–	–	CN(C)c1cccc(S(=O)(=O)NCc2cccc([C@@H](NC(=O)c3cccc4c3-c3ccccc3C4=O)C(=O)O)c2)c1
–	< 3	5.4	–	–	–	–	–	–	Cn1c2ccccc2c2c(C(=O)NC(C(=O)O)c3ccc4c(c3)CN(S(=O)(=O)c3cccc(Br)c3)CC4)cccc21 (centres undefined)
–	22	15	89	200	92	2.2	400	–	Cn1c2ccccc2c2c(C(=O)NC(C(=O)O)c3ccc4c(c3)CN(S(=O)(=O)c3cccc(C#N)c3)CC4)cccc21 (centres undefined)
–	8	8	66	47	86	4.7	280	–	CCOc1ccc(S(=O)(=O)N2CCc3ccc(C(NC(=O)c4cccc5c4c4ccccc4n5C)C(=O)O)cc3C2)cc1C#N (centres undefined)
–	< 3	3.2	< 3	4.5	77	–	78	–	N#Cc1cc(S(=O)(=O)N2CCc3ccc(C(NC(=O)c4cccc5c4-c4ccccc4C5=O)C(=O)O)cc3C2)ccc1F (centres undefined)
soluble	< 3	3.8	–	–	–	–	–	Permeable	COc1ccc(S(=O)(=O)N2CCc3ccc(C(NC(=O)c4cccc5c4-c4ccccc4C5=O)C(=O)O)cc3C2)cc1 (centres undefined)
–	3.5	4.5	–	–	–	–	–	–	COc1ccc(S(=O)(=O)N2CCc3ccc(C(NC(=O)c4cccc5c4-c4ccccc4C5=O)C(=O)O)cc3C2)cc1C#N (centres undefined)
–	< 3	4.7	–	–	–	–	–	–	CCOc1ccc(S(=O)(=O)N2CCc3ccc(C(NC(=O)c4cccc5c4-c4ccccc4C5)C(=O)O)cc3C2)cc1C#N (centres undefined)
